Test results from PMC4890880 (ACS infectious diseases, 2016).
Like-named read-outs stand apart in the source and are kept apart here.

Tests used:
HepG2-A16-CD81EGFP cells = assay: cells; conditions: Homo sapiens; for IC50: HepG2, read-out: Tox IC50; for inhibition at 50 µM: HepG2, read-out: Tox max inhibition (%) @ 50 uM; for inhibition at 10 µM: HepG2, read-out: Tox max inhibition (%) @ 10 uM
[1] = tested on: Plasmodium berghei (Pb-Luc) exoerythrocytic-stage parasites; assay: microbe, parasite or virus in culture; conditions: for inhibition at 10 µM: read-out: PbLuc max inhibition (%) @ 10 uM
[2] = biological target: QuantiLum Recombinant Luciferase (Photinus pyralis, UniProt P08659); assay: Bioluminescence quantification of compound luciferase inhibition; conditions: for Emax: read-out: LucInhib max inhibition
[3] = HepG2, read-out: HepG2 Tox% @ 50 uM rep1
[4] = HepG2, read-out: HepG2 Tox% @ 50 uM rep2
[5] = read-out: Inhibition% @ 50 uM rep1
[6] = read-out: Inhibition% @ 50 uM rep2
[7] = read-out: PbLuc IC50, dose response, 1/3 dilutions, max conc. 10 or 50 uM, unit inferred
[8] = read-out: PbLuc max inhibition (%) @ 50 uM
[9] = read-out: PbLuc IC50, dose response, unit inferred

QuantiLum Recombinant Luciferase, sequence (P08659 whole entry): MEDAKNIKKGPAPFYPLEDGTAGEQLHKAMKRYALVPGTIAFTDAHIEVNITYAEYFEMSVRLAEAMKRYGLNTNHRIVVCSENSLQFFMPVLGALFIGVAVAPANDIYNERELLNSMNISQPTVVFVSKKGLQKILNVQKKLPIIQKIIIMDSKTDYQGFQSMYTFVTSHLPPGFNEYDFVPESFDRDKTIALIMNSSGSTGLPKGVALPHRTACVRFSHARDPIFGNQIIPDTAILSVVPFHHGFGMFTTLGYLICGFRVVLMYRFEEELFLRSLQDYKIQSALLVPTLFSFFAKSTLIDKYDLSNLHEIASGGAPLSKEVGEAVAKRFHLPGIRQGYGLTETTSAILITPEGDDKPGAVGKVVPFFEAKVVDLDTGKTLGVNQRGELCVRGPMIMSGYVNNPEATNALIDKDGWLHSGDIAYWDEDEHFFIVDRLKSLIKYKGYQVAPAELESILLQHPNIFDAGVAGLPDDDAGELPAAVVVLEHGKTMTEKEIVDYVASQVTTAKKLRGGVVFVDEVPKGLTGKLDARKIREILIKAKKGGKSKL

Row | Structure (SMILES) | cytotoxicity at 50 µM (HepG2-A16-CD81EGFP cells; [3]) [%] | cytotoxicity at 50 µM (HepG2-A16-CD81EGFP cells; [4]) [%] | IC50 (HepG2-A16-CD81EGFP cells) [µM] | inhibition at 50 µM (HepG2-A16-CD81EGFP cells) [%] | inhibition at 50 µM [1, 5] [%] | inhibition at 50 µM [1, 6] [%] | IC50 [1, 7] [µM] | inhibition at 50 µM [1, 8] [%] | IC50 [2] [µM] | Emax [2] [%] | inhibition at 10 µM (HepG2-A16-CD81EGFP cells) [%] | inhibition at 10 µM [1] [%] | IC50 [1, 9] [µM]
1 | COc1ccc(-c2cc3c(SCC(=O)Nc4cc(C(F)(F)F)ccc4Cl)nccn3n2)cc1 [MMV396679] | 7 | 18 | > 50 | 14 | 102 | 103 | 2.18 | 105 | > 50 | 10 | – | – | –
2 | CCOC(=O)c1cnc2ccc(CC)cc2c1O [MMV007116] | -3.48 | -3.29 | > 10 | – | 102 | 101 | 0.0491 | – | > 20 | 17 | 10 | 110 | –
3 | CCN1CCN(c2c(C(=O)c3ccccc3)cnc3cc(OC)c(OC)cc23)CC1 [MMV008474] | 7 | – | > 50 | 7 | 102 | 103 | 1.01 | 106 | > 50 | 22 | – | – | –
4 | CCCCc1c(C)nc2c(OC)cccc2c1O [MMV006820] | -15 | -12 | > 10 | – | 99 | 102 | 0.162 | – | > 20 | 41 | 15 | 110 | –
5 | COc1cc(CNCCc2ccc(Cl)cc2)cc(OC)c1O [MMV128432] | -13 | – | > 50 | 33 | 90 | 93 | – | 73 | > 50 | 39 | – | – | > 50
6 | CCOc1cc(Cl)c(C(C)NC(=O)c2ccccc2)cc1OCC (centres unmarked) [MMV665800] | 49 | 21 | > 50 | 22 | 97 | 93 | – | 89 | > 50 | 41 | – | – | > 50
7 | CCCCOc1ccc(C(=O)Nc2cc(C)on2)cc1 [MMV007906] | -15 | -10 | > 10 | – | 98 | 98 | 0.907 | – | > 20 | 34 | 7.53 | 97 | –
8 | CCOc1ccc(CCNC(=O)c2cccs2)cc1OCC [MMV007978] | 43 | 10 | > 50 | 8 | 104 | 106 | 7.94 | 104 | > 50 | 34 | – | – | –
9 | O=C(NC1CCCC1)c1ccc(N2CCC(NCc3cccc(C(F)(F)F)c3)CC2)cc1 [MMV666070] | -11 | 8.43 | > 50 | 10 | 98 | 96 | 1.86 | 98 | > 50 | 18 | – | – | –
10 | CCOC(=O)c1cn(CC)c2cc(N(C)CCc3ccc(OC)c(OC)c3)c(F)cc2c1=O [MMV665977] | 6 | 3 | > 50 | 3.53 | 103 | 106 | 1.61 | 106 | > 50 | 40 | – | – | –
